Assay results from PMC7434981, “Development of a Novel Positron Emission Tomography (PET) Radiotracer Targeting Bromodomain and Extra-Terminal Domain (BET) Family Proteins” (Frontiers in Molecular Biosciences, 2020).

Assays:
BET BD1 = target: BET BD1; set-up: method as in Zhao et al., 2018; details: ref Zhao et al., 2018, cited from earlier work
[1] = tested on: non-BET bromodomain-containing proteins; set-up: method as in Zhao et al., 2018; details: ref Zhao et al., 2018; cited from earlier work
[2] = Dynamic PET/CT imaging in mice, baseline uptake and biodistribution; type: in vivo, male Balb/c mice
Method: Following the successful radiosynthesis, we stepped forward to evaluate [^11C]1 as a potential BET PET radiotracer by PET imaging experiments in rodents. Dynamic PET imaging in male Balb/c mice was conducted following the injection of [^11C]1 via the tail vein at the dose of 3.7–7.4 Mbq for each scan. Each dynamic PET imaging scan lasted for 60 min and followed by a 10-min of computed tomography (CT) scan. The PET/CT imaging analysis was then performed by dynamic data collection and image reconstruction. The biodistribution of [^11C]1 in the whole-body of mice is initially studied. As depicted in Figure 2, four time-points (5, 10, 30, and 60 min) after [^11C]1 injection were selected to evaluate the uptake, biodistribution, and clearance of the radioligand in the organs of interests. […] In the heart, spleen, and lung, the uptakes of radioligand reached a peak sharply and followed by gradual wash-out post-injection.
(§1) The general procedure for rodent PET/CT studies was described previously ([Bai et al., 2019], [2020a]). Briefly, the PET/CT scan was carried out by a Triumph Trimodality/SPECT scanner (Gamma Medica, Northridge, CA, United States). Mice were arranged under anesthetized 2% isoflurane (Patterson Vet Supply, Inc., Greeley, CO, United States) in a carrier of 2 L/min medical oxygen during the imaging scanning. [^11C]1 (3.7–7.4 Mbq per animal, n = 2) was injected in mice via a lateral tail vein catheterization before PET acquisition. For the blocking study, the radioligand was administrated after CF53, or JQ1 was injected via a lateral tail vein catheterization 5-min before the start of PET acquisition. Dynamic PET acquisition lasted for 60 min followed by 10-min CT for anatomic co-registration. PET data were reconstructed using a 3D-MLEM method resulting in full width at a half-maximum resolution of 1 mm. These files were imported and analyzed using AMIDE ([Loening and Gambhir, 2003]) (a medical imaging data examiner) software (an open-source software, Los Angeles, CA, United States) and PMOD (PMOD 4.01, PMOD Technologies Ltd., Zurich, Switzerland).
(§2) Dynamic PET data were collected and the corresponding images were reconstructed by 3D-MLEM method resulting in full width at a half-maximum resolution of 1 mm. Volumes of interest (VOIs) were generated manually in forms of spheres under the guide of high-resolution CT structural images. TACs were exported as decay-corrected activity per unit volume. The TACs were expressed as percent injected dose per unit volume (%ID/cc) for analysis.

BET proteins = assay: PET/CT blocking studies in mice (specific binding); type: in vivo; details: for radioactivity reduction in the whole-brain: based on TACs; for decrease of radioligand concentration in organs of interest: average over organs
Method: To evaluate the specific binding of [^11C]1, the blocking studies were carried out. Mice were pre-treated with unlabeled 1 (1.0 mg/kg) and JQ1 (1.0 mg/kg) at 5-min prior to the administration of [^11C]1. The PET/CT imaging and time-activity curves (TAC) of baseline and blocking studies are shown separately in Figure 3.
as §1, §2

COc1cc2c(cc1-c1c(C)noc1C)[nH]c1nc(C)nc(Nc3cc(C4CC4)nn3C)c12 [Compound 1]
Ki (BET BD1; binding affinity to BET BD1): < 1 nM
Kd (BET BD1; to BET BD1, printed in Figure 1): 0.49 to 2.2 nM
selectivity over non-BET bromodomain-containing proteins [1]: high selectivity

Cc1nc(Nc2cc(C3CC3)nn2C)c2c(n1)[nH]c1cc(-c3c(C)noc3C)c(O[11CH3])cc12 [[^11C]1]
distribution in blood-rich organs ([2]; heart, liver and kidney, i.v. tail vein, 5-60 min post-injection): highly distributed
time of max brain uptake ([2]; post-injection, whole brain): ~2 min
brain-blood barrier (BBB) penetration ([2]; whole brain PET): limited
max brain uptake ([2]; whole-brain analysis, i.v.): 0.9 % ID/cc
radioactivity reduction in the whole-brain (BET proteins; JQ1-blocking (1.0 mg/kg JQ1)): ~50%
decrease of radioligand concentration in organs of interest (BET proteins; JQ1-blocking: pre-treated with JQ1 (1.0 mg/kg) 5 min prior): over 40%
radioactivity reduction in the whole-brain (BET proteins; self-blocking (1.0 mg/kg CF53)): ~50%
decrease of radioligand concentration in organs of interest (BET proteins; self-blocking: pre-treated with unlabeled 1 (1.0 mg/kg) 5 min prior): over 40%
